Test results taken from patent US8975398B2, “NAMPT inhibitors” (AbbVie Inc., priority 2012, dated 2015).

Tested on: experimental autoimmune encephalomyelitis (EAE)
Test: not given
Conditions: model of T-cell mediated autoimmune disorders; Bruzzone, S et al. Plos One 4, e7897, 2009; cited from earlier work

Compound | manifestations of experimental autoimmune encephalomyelitis (EAE)
O=C(/C=C/c1cccnc1)NCCCCC1CCN(C(=O)c2ccccc2)CC1 [FK866] | ameliorated the manifestations

Tested on: activated T cells
Test: not given
Conditions: Busso, N. et al. Plos One 3, e2267, 2008; cited from earlier work

Compound | apoptosis of activated T cells | proliferation of activated T cells
O=C(/C=C/c1cccnc1)NCCCCC1CCN(C(=O)c2ccccc2)CC1 [FK866] | induce apoptosis | selectively block proliferation

Tested on: collagen-induced arthritis
Test: not given
Conditions: Busso, N. et al. Plos One 3, e2267, 2008; cited from earlier work

Compound | efficacy in animal models of arthritis (collagen-induced arthritis)
O=C(/C=C/c1cccnc1)NCCCCC1CCN(C(=O)c2ccccc2)CC1 [FK866] | efficacious

Tested on: PC3 cells
Test: NAMPT Cell Proliferation Assay (Cell Titer Glo; also performed in the presence of 0.3 mM nicotinamide mononucleotide)
Assay type: cell-based
Conditions: Homo sapiens, PC-3, 120 h, 5 days incubation, cell viability by Cell Titer Glo
Outline: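 PC3 cells were plated at 500 cells/well in RPMI with 10% heat-inactivated FBS, left to attach overnight, then given compounds in 10-fold dilutions from 10 μM to 1×10^−5 μM. After 5 days at 37° C and 5% CO2, viability was read by luminescence and IC50s came from sigmoidal fits of percent inhibition.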

Compound | IC50
O=C(Nc1ccc(CC2CCN(C(=O)CC3CC3)CC2)cc1)C1CN(c2cccnn2)C1 [Example 956, N-(4-{[1-(cyclopropylacetyl)piperidin-4-yl]methyl}phenyl)-1-(pyridazin-3-yl)azetidine-3-carboxamide] | 6.4 nM
CCOC(=O)c1cc(-c2ccc(NC(=O)C3CN(c4cccnn4)C3)cc2)n(-c2ccccc2)n1 [Example 913, ethyl 1-phenyl-5-[4-({[1-(pyridazin-3-yl)azetidin-3-yl]carbonyl}amino)phenyl]-1H-pyrazole-3-carboxylate] | 66.3 nM
CC[C@H](C)C(=O)N1CCC(Cc2ccc(NC(=O)C3CN(c4cccnn4)C3)cc2)CC1 [Example 903, N-[4-({1-[(2S)-2-methylbutanoyl]piperidin-4-yl}methyl)phenyl]-1-(pyridazin-3-yl)azetidine-3-carboxamide] | 0.618 nM
O=C(NCC1CCOC1)c1ccc(NC(=O)C2CN(c3cccnn3)C2)cc1 (centres unmarked) [Example 989, 1-(pyridazin-3-yl)-N-{4-[(tetrahydrofuran-3-ylmethyl)carbamoyl]phenyl}azetidine-3-carboxamide] | 602 nM
CC(C)(C)CC(=O)N1CCC(c2ccc(NC(=O)C3CN(c4cccnn4)C3)cc2F)CC1 [Example 882, N-{4-[1-(3,3-dimethylbutanoyl)piperidin-4-yl]-3-fluorophenyl}-1-(pyridazin-3-yl)azetidine-3-carboxamide] | 6.43 nM
CN(C)CCc1ccc(NC(=O)c2ccc(NC(=O)C3CN(c4cccnn4)C3)cc2)cc1 [Example 1021, N-[4-({4-[2-(dimethylamino)ethyl]phenyl}carbamoyl)phenyl]-1-(pyridazin-3-yl)azetidine-3-carboxamide] | 47.7 nM
O=C(Nc1ccc(CC2CCN(C(=O)c3ccccn3)CC2)cc1)C1CN(c2cccnn2)C1 [Example 954, 1-(pyridazin-3-yl)-N-(4-{[1-(pyridin-2-ylcarbonyl)piperidin-4-yl]methyl}phenyl)azetidine-3-carboxamide] | 6.38 nM
O=C(Nc1ccc(CC2CCN(C(=O)c3nccs3)CC2)cc1)C1CN(c2cccnn2)C1 [Example 951, 1-(pyridazin-3-yl)-N-(4-{[1-(1,3-thiazol-2-ylcarbonyl)piperidin-4-yl]methyl}phenyl)azetidine-3-carboxamide] | 2.77 nM
Cc1ccc(N2CC[C@H](C(=O)Nc3ccc(C4CCN(C(=O)c5ccccc5F)CC4)cc3)C2)nn1 [Example 892, (3S)—N-{4-[1-(2-fluorobenzoyl)piperidin-4-yl]phenyl}-1-(6-methylpyridazin-3-yl)pyrrolidine-3-carboxamide] | 146 nM
Cc1ccc(N2CC(C(=O)Nc3ccc(-c4cnn(CC5(C)CCN(C6COC6)CC5)c4)cc3)C2)nn1 [Example 905, N-[4-(1-{[4-methyl-1-(oxetan-3-yl)piperidin-4-yl]methyl}-1H-pyrazol-4-yl)phenyl]-1-(6-methylpyridazin-3-yl)azetidine-3-carboxamide] | 13.3 nM
CCC(CC)C(=O)N1CCC(Cc2ccc(NC(=O)C3CN(c4cccnn4)C3)cc2)CC1 [Example 899, N-(4-{[1-(2-ethylbutanoyl)piperidin-4-yl]methyl}phenyl)-1-(pyridazin-3-yl)azetidine-3-carboxamide] | 0.401 nM
O=C(Nc1ccsc1)c1ccc(NC(=O)C2CN(c3cccnn3)C2)cc1 [Example 984, 1-(pyridazin-3-yl)-N-[4-(thiophen-3-ylcarbamoyl)phenyl]azetidine-3-carboxamide] | 696 nM
O=C(Nc1ccc(C2CCN(C(=O)CCC(F)(F)F)CC2)nc1)C1CN(c2cccnn2)C1 [Example 919, 1-(pyridazin-3-yl)-N-{6-[1-(4,4,4-trifluorobutanoyl)piperidin-4-yl]pyridin-3-yl}azetidine-3-carboxamide] | 51.9 nM
O=C(Nc1ccc(C2CCN(C(=O)c3ccccc3F)CC2)c(F)c1)C1CN(c2cccnn2)C1 [Example 885, N-{3-fluoro-4-[1-(2-fluorobenzoyl)piperidin-4-yl]phenyl}-1-(pyridazin-3-yl)azetidine-3-carboxamide] | 1.63 nM
O=C(NCCC1CC1)c1ccc(NC(=O)C2CN(c3cccnn3)C2)cc1 [Example 975, N-{4-[(2-cyclopropylethyl)carbamoyl]phenyl}-1-(pyridazin-3-yl)azetidine-3-carboxamide] | 98 nM
CC(C)(C)C(=O)N1CCC(Cc2ccc(NC(=O)C3CN(c4cccnn4)C3)cc2)CC1 [Example 897, N-(4-{[1-(2,2-dimethylpropanoyl)piperidin-4-yl]methyl}phenyl)-1-(pyridazin-3-yl)azetidine-3-carboxamide] | 1.56 nM
Cc1ccc(N2CC(C(=O)Nc3ccc(-c4cnn(CC5(C)CCOCC5)c4)cc3)C2)nn1 [Example 891, 1-(6-methylpyridazin-3-yl)-N-(4-{1-[(4-methyltetrahydro-2H-pyran-4-yl)methyl]-1H-pyrazol-4-yl}phenyl)azetidine-3-carboxamide] | 65.6 nM
Cc1ccc(N2CC[C@H](C(=O)Nc3ccc(C4CCN(C(=O)c5ccccc5)CC4)cc3)C2)nn1 [Example 893, (3S)—N-[4-(1-benzoylpiperidin-4-yl)phenyl]-1-(6-methylpyridazin-3-yl)pyrrolidine-3-carboxamide] | 681 nM
COCCNC(=O)c1ccc(NC(=O)C2CN(c3cccnn3)C2)cc1 [Example 1023, N-{4-[(2-methoxyethyl)carbamoyl]phenyl}-1-(pyridazin-3-yl)azetidine-3-carboxamide] | 508 nM
